The values that follow come from patent publication US20220185795A1, “COMPOUND FORM HAVING ENHANCED BIOAVAILABILITY AND FORMULATIONS THEREOF” (PTC THERAPEUTICS, INC., priority 2019, published 2022).

≈ marks a conversion by molar mass, not a printed value. Entries after “also recorded” stand apart in the source; their conditions may differ. Where only a bound is given, the exact number is not on record here.

In general, solubility refers to how much of the substance goes into solution per volume. Low values mean little dissolved substance, high ones much dissolved substance. Usually pKa stands for the negative logarithm of the acid dissociation constant. High values mean a weaker acid or stronger base, low ones a stronger acid or weaker base.

Data set [1] is described as follows: Storage stability study of SDD tablets. The data set is classed as physicochemical. The note with it: tablet form, a year at 40° C./75% relative humidity (RH). An excerpt:
Granules were obtained through dry granulation, milling and mixing process. A dry granulation was obtained by sieving together a mixture of microcrystalline cellulose, lactose monohydrate, croscarmellose sodium, Poloxamer 407, colloidal silicon dioxide and the SDD, then adding magnesium stearate and mixing to obtain a first admixture. The density of the first admixture was increased by dry granulation to provide a first portion of granules. A second portion of magnesium stearate was sieved with a 30-mesh sieve, then combined with the first portion of granules and mixed in a V-blender for 2 minutes to obtain a second admixture. The second portion of granules were then obtained using a roller compactor and milled. The milled granules were added to the V-blender and mixed with the extragranular excipient's microcrystalline cellulose, lactose monohydrate and croscarmellose sodium. The extragranular excipients were sieved through a 30-mesh sieve, then added to the V-blender and mixed with the granules for 2 minutes to provide a third admixture. The third admixture was compressed into different tablet strengths using die that provided conforming tablet sizes.
Active formulation tablets having the composition as described in Table 10 were tested for stability under different storage conditions.

Data set [2] is described as follows: Biopharmaceutics Classification System (BCS) class. The following applies: stable crystalline form. An excerpt: The Biopharmaceutics Classification System (BCS) is a system developed by the U.S. Food and Drug Administration (FDA) to differentiate forms of active pharmaceutical ingredients (API) based on their solubility and intestinal permeability, as follows: Class I: high solubility, high permeability; Class II: low solubility, high permeability; Class III: high solubility, low permeability, and Class IV: low solubility, low permeability. Formulating compositions of a BCS II-type API to enhance solubility and thus improve bioavailability can be a challenge.
(§1) The terms “Form A” and “Form B” refer to forms of Compound A that are purified anhydrous crystalline polymorph forms.

A short description of data set [3]: Polymorph stability studies. In kind it is physicochemical. The note with it: crystalline polymorphs.
Excerpt: as §1

Data set [4] in a line: Dynamic Vapor Sorption (DVS). The data set is classed as physicochemical. The note with it: at 95% RH.
Data set [5] is described as follows: Solubility in aqueous phosphate buffer and FaSSIF, pH 6.5. The data set is classed as physicochemical.
Data set [6] is described as follows: pKa of aromatic amino group. In kind it is physicochemical. The note with it: weakly basic aromatic amino group.

Turning to `Cc1nc2ccc(F)cc2n1-c1nc(N)c(F)c(Nc2ccc(C(F)(F)F)cc2)n1` [Compound A, 5-fluoro-2-(6-fluoro-2-methyl-1H-benzimidazol-1-yl)-N-[4-(trifluoromethyl)phenyl]pyrimidine-4,6-diamine], the “chemical and physical stability (XRPD and mDSC)” value in data set [1] is “both chemically and physically stable in tablet form and remained in an amorphous state”.
As for `Cc1nc2ccc(F)cc2n1-c1nc(N)c(F)c(Nc2ccc(C(F)(F)F)cc2)n1` [Form A, 5-fluoro-2-(6-fluoro-2-methyl-1H-benzimidazol-1-yl)-N-[4-(trifluoromethyl)phenyl]pyrimidine-4,6-diamine], the BCS class result in data set [2] was “BCS II substance”. In data set [3], the polymorph stability entry was “more stable than Form B; also recorded: most stable anhydrous crystalline form”.
As to `Cc1nc2ccc(F)cc2n1-c1nc(N)c(F)c(Nc2ccc(C(F)(F)F)cc2)n1` [Form B, 5-fluoro-2-(6-fluoro-2-methyl-1H-benzimidazol-1-yl)-N-[4-(trifluoromethyl)phenyl]pyrimidine-4,6-diamine], in data set [3], the polymorph stability entry is on record as “converts to Form A”.
Take `Cc1nc2ccc(F)cc2n1-c1nc(N)c(F)c(Nc2ccc(C(F)(F)F)cc2)n1` [Form I, 5-fluoro-2-(6-fluoro-2-methyl-1H-benzimidazol-1-yl)-N-[4-(trifluoromethyl)phenyl]pyrimidine-4,6-diamine]: in data set [4], the water absorption result was “approximately 1.3%”. In addition, the solubility was around 18 µg/mL (≈ 42.8 µM) in data set [5] (Fasted State Intestinal Fluid (FaSSIF) at pH 6.5) and below 1 µg/mL in data set [5] (aqueous phosphate buffer at pH 6.5). The compound also had a pKa in data set [6] below 3.
